The record followed here is patent US7368576B2, “Dipeptidyl peptidase IV inhibitors and their uses as anti-cancer agents” (Probiodrug AG, priority 2001, dated 2008).

Format in all cases: biochemical
Assay [1] deals with T1, dipeptidyl peptidase IV from porcine kidney (Sus scrofa, UniProt P22411).
T1 construct: dipeptidyl peptidase IV from porcine kidney; from tissue; host or cells: porcine kidney
As to the kind of experiment: Ki determination, DPIV inhibition (glycylprolyl-4-nitroaniline). The settings on record: HEPES pH7.6, 30° C.

In a further assay the target is purified porcine DPIV (Sus scrofa, UniProt P22411). As to the kind of experiment: Determination of IC50 values, DPIV (Gly-Pro-pNA). The note with it: Gly-Pro-pNA 0.4 mM, HEPES pH7.6, 30° C. As for the experimental part: 100 μl inhibitor stock solution were mixed with 100 μl buffer (HEPES pH7.6) and 50 μl substrate (Gly-Pro-pNA, final concentration 0.4 mM) and preincubated at 30° C. Reaction was started by addition of 20 μl purified porcine DPIV. Formation of the product pNA was measured at 405 nm over 10 min using the HTS 7000Plus plate reader (Perkin Elmer) and slopes were calculated. The final inhibitor concentrations ranged between 1 mM and 30 nM. For calculation of IC50 GraFit 4.0.13 (Erithacus Software) was used.
Chain of purified porcine DPIV (P22411 whole entry): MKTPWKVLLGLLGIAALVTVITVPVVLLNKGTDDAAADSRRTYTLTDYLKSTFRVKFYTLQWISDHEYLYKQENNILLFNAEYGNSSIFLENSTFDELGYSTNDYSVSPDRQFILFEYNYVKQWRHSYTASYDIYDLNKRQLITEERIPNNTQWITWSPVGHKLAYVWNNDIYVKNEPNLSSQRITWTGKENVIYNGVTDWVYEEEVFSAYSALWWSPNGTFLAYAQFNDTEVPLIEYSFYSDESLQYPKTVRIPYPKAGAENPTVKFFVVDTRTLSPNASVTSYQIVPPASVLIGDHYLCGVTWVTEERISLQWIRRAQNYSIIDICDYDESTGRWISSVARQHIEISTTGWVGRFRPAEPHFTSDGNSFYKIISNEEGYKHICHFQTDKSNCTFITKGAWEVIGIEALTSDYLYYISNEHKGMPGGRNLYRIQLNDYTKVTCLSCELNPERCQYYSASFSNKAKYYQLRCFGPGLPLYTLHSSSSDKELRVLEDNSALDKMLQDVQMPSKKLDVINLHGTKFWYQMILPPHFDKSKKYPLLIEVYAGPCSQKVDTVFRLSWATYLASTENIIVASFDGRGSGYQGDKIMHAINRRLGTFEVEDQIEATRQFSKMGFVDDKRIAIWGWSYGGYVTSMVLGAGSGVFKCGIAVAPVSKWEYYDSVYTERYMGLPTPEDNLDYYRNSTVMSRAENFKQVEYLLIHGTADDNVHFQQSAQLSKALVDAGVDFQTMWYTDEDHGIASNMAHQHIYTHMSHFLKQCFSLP

Assay [2] deals with T2, porcine dipeptidyl peptidase II (DP II) (Sus scrofa, UniProt A0A5G2QK18).
T2 construct: The enzyme used was purified from porcine kidney; from tissue; host or cells: porcine kidney
T2 sequence (A0A5G2QK18 28-502): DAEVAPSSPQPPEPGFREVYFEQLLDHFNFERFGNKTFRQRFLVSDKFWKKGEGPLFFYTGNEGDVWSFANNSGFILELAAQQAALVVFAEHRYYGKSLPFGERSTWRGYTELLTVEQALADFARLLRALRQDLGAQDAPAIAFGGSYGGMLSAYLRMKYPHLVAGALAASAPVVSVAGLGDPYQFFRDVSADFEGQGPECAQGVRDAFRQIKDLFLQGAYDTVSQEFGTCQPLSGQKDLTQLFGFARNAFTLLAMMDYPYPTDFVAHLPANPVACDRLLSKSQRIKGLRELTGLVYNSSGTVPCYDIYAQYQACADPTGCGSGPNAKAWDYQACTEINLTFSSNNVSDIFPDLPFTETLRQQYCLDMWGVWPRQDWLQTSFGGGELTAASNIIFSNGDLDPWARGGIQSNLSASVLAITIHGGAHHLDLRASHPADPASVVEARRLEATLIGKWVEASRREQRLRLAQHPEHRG
Description: Inhibition of DPIV-like enzymes, dipeptidyl peptidase II. The note with it: lysylalanylaminomethylcoumarine, 30° C.; read-out: Ki against porcine dipeptidyl peptidase II. As for the experimental part: DP II (3.4.14.2) releases N-terminal dipeptides from oligopeptides if the N-terminus is not protonated (McDonald, J. K., Ellis, S. & Reilly, T. J., 1966, J. Biol. Chem., 241, 1494-1501). Pro and Ala in Pi-position are preferred residues. The enzyme activity is described as DPIV-like activity, but DP II has an acidic pH-optimum. The enzyme used was purified from porcine kidney.
100 μl glutaminyl pyrrolidine or glutaminyl thiazolidine in an concentration range of 1*10^−4 M-5*10^−8 M were admixed with 100 μl μl buffer solution (40 mM HEPES, pH7.6, 0.015% Brij, 1 mM DTT), 50 μl lysylalanylaminomethylcoumarine solution (5 mM) and 20 μl porcine DP II (250fold diluted in buffer solution). Fluorescence measurement was performed at 30° C. and λexiatation=380 nm, λemission=465 nm for 25 min using a plate reader (HTS7000plus, Applied Biosystems, Weiterstadt, Germany).

The target of assay [3] is T3, Dipeptidyl Peptidase I (DP I, Cathepsin C) (Rattus norvegicus, UniProt P80067).
T3 construct: purchased Qiagen GmbH, Hilden, Germany
T3 sequence (P80067 25-462): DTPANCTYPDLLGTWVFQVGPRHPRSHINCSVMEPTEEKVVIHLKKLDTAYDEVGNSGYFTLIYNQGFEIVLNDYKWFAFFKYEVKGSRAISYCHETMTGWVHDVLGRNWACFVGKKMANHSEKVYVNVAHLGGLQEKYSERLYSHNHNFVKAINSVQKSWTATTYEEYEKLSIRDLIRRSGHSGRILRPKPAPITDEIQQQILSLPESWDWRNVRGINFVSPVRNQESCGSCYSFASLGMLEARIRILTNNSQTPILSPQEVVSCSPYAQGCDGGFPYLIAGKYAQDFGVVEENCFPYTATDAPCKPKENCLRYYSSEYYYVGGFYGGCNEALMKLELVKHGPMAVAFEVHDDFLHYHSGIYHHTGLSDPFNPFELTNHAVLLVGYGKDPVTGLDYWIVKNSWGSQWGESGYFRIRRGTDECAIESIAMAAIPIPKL
As to the kind of experiment: Cross reacting enzymes: dipeptidyl peptidase I. The note with it: concentration range 1*10^−5 M-1*10^−7 M. As for the experimental part: DP I or cathepsin C is a lysosomal cysteine protease which cleaves off dipeptides from the N-terminus of their substrates (Gutman, H. R. & Fruton, J. S., 1948, J. Biol: Chem., 174, 851-858). It is classified as a cysteine protease. The enzyme used was purchased from Qiagen (Qiagen GmbH, Hilden, Germany). In order to get a fully active enzyme, the enzyme was diluted 1000fold in MES buffer pH5.6 (40 mM MES, 4 mM DTT, 4 mM KCl, 2 mM EDTA, 0.015% Brij) and pre-incubated for 30 min at 30° C.
50 μl glutaminyl pyrrolidine or glutaminyl thiazolidine in a concentration range of 1*10^−5 M-1*10^−7 M were admixed with 110 μl buffer-enzyme-mixture. The assay mixture was pre-incubated at 30° C. for 15 min. After pre-incubation, 100 μl histidylseryl-β-nitroaniline (2*10^-5M) was added and measurement of yellow color development due to β-nitroaniline release was performed at 30° C. and […] for 10 min., using a plate reader (HTS7000 plus, Applied Biosystems, Weiterstadt, Germany).
The IC50-values were calculated using Graphit 4.0.15 (Erithacus Software, Ltd., UK).

The target in assay [4] is T4, Prolidase from porcine kidney (Sus scrofa, UniProt A0A5G2QQV1).
T4 construct: Prolidase from porcine kidney; purchased ICN Biomedicals, Eschwege, Germany; host or cells: porcine kidney
T4 sequence (A0A5G2QQV1 1-463): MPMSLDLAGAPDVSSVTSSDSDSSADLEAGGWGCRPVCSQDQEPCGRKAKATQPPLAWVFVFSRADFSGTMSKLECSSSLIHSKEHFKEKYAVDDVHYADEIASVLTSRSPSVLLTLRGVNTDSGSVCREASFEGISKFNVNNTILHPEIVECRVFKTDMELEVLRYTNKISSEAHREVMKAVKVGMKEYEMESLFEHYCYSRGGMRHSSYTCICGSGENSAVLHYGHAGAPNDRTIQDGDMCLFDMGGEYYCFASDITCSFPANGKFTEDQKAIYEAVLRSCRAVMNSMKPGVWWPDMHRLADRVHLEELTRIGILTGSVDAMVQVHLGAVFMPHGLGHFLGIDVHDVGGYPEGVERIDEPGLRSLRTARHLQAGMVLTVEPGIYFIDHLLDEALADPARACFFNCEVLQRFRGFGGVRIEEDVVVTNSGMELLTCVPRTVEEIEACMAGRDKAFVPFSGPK
Description: Cross reacting enzymes: prolidase. The settings on record: Ile-Pro-OH 0.5 mM, pH 7.6; read-out: IC50 against prolidase. How it is done: Prolidase from porcine kidney (ICN Biomedicals, Eschwege, Germany) was solved (1 mg/ml) in assay buffer (20 mM NH4(CH3COO)2, 3 mM MnCl2, pH 7.6). In order to get a fully active enzyme the solution was incubated for 60 min at room temperature.
450 μl glutaminyl pyrrolidine or glutaminyl thiazolidine in an concentration range of 5*10^−3 M-5*10^−7 M were admixed with 500 μl buffer solution (20 mM […], pH 7.6) and 250 μl Ile-Pro-OH (0.5 mM in the assay mixture). The assay mixture was pre-incubated at 30° C. for 5 min. After pre-incubation, 75 μl Prolidase (1:10 diluted in assay buffer) were added and measurement was performed at 30° C. and λ=220 nm for 20 min using a UV/Vis photometer, UV1 (Thermo Spectronic, Cambridge, UK).
The IC 50-values were calculated using Graphit 4.0.15 (Erithacus Software, Ltd., UK).

pIC50, pKi: −log10 of the molar value.

T1 sequence (P22411 whole entry): as the sequence (P22411 whole entry) above

In general, pKi refers to the negative decadic logarithm of the Ki, by convention in mol/L. The term pIC50 denotes the negative decadic logarithm of the IC50, by convention in mol/L. `NC(=O)CCC(N)C(=O)N1CCCC1` (centres unmarked) [Gln-Pyrr, glutaminyl pyrrolidine]: the negative logarithm of the Ki (pKi) in assay [1] is 5.65; in assay [2] it was 4.07. Moreover, the values for the pIC50 (on purified porcine DPIV; in assay [4]) were 4.82 and 3.47, respectively. Moreover, the “inhibition of the DP I enzyme activity” value in assay [3] is reported as “No inhibition”.
